# What was measured:
# [1] = Compound stability test in plasma (rat); format: in vitro ADME, SD rat
# Method: (§1) In this study, mouse, SD rat, Beagle, cynomolgus monkey and human plasma were used as materials to investigate the stability of the tested compounds in the plasma of the above five species. Propantheline, Enalapril, Bisacodyl and Procaine were used as control compounds.
# (§2) The experimental conditions for the test compounds were as follows: • test concentration: 2 μM (DMSO ≤0.5%); • incubation times: 0, 10, 30, 60 and 120 minutes; • frozen plasma (from multiple species) was used in the test system; • incubation conditions: 37° C.
# (§3) The mixed frozen plasma was thawed in a 37° C. water bath prior to the experiment. Plasma was centrifuged at 4000 rpm for 5 minutes and cleared if there was a clot. The pH will be adjusted to 7.4±0.1 if required.
# (§4) The intermediate solution of 1 mM compound and positive control was prepared by diluting 10 mM stock solution with 90 μL of dimethyl sulfoxide. 100 μM solution was prepared by diluting 20 μL of intermediate solution (1 mM) with 180 μL of 45% methanol/water.
# (§5) 2 μL of 100 μM solution was added to 98 μL of blank plasma to achieve a final concentration of 2 μM (in duplicate) of the sample, and the sample was incubated in a 37° C. water bath. At each time point (0, 10, 30, 60 and 120 min), 400 μL of termination solution (200 ng/mL toluenesulfonylurea and 200 ng/mL labetalol, 50% ACN/MeOH) was added to precipitate the proteins and mixed thoroughly. […]
# [2] = tested on: HuPrime lung cancer LU0387 subcutaneous xenograft tumor; assay: HuPrime lung cancer LU0387 subcutaneous xenograft BALB/c nude mouse model; format: in vivo, BALB/c Nude mice
# Method: The antitumor effects of the test drug in HuPrime® lung cancer LU0387 subcutaneous xenograft BALB/C nude mouse were evaluated.
# BALB/c Nude mice, female, 7-8 weeks, HuPrime® lung cancer xenograft model LU0387 tumor-bearing mouse tumor tissue.
# BALB/c nude mice were subcutaneously inoculated with HuPrime® model LU0387 tumor blocks to establish a human lung cancer subcutaneous transplantation tumor model. The test was divided into a solvent control group and a test drug group. The drug was administered by gavage, once daily for 21 days. Efficacy was evaluated based on relative tumor inhibition rate (TGI), and the safety was evaluated based on animal weight change and mortality.
# Tumor diameters were measured with vernier calipers twice a week. The calculation formula of tumor volume was: V=0.5a×b^2, wherein a and b represented the long and short diameters of the tumor, respectively.
# The antitumor efficacy of the compounds was evaluated by TGI (%) or relative tumor proliferation rate T/C (%).
# Relative tumor proliferation rate T/C (%)=TRTV/CRTV×100% (TRTV: mean RTV in the treatment group; CRTV: mean RTV in the solvent control group).
# The relative tumor volume (RTV) was calculated according to the results of tumor measurement. The calculation formula was RTV=Vt/V0, wherein V0 was the tumor volume measured at the time of group administration (i.e., D0), and Vt was the tumor volume corresponding to a certain measurement. TRTV and CRTV were taken on the same day.
# TGI (%), reflecting the tumor growth inhibition rate. TGI (%)=[(1−(average tumor volume at the end of administration of a treatment group−average tumor volume at the beginning of administration of this treatment group))/(average tumor volume at the end of treatment in the solvent control group−average tumor volume at the beginning of treatment of the solvent control group)]×100%.
# [3] = Compound stability test in plasma (human); format: in vitro ADME
# Method: as §1, §2, §3, §4, §5
# [4] = target: EGFR L858R/T790M double mutant enzyme (Homo sapiens, UniProt P00533, L858R/T790M); assay: Kinase assay (HTRF KinEASE TK), EGFR L858R/T790M; format: biochemical
# Source text: To detect the inhibitory effect of compounds on EGFR WT, EGFR (D770_N771insNPG), ERBB2 (V777_G778ins>CG), EGFR T790M/L858R enzyme activities
# EGFR WT (Invitrogen, Cat. No. PR7295B), EGFR [L858R] (Invitrogen, Cat. No. PR7447A), EGFR [d746-750] (Invitrogen, Cat. No. PV6179), ATP (Sigma, Cat. No. A7699-1G), DMSO (Sigma, Cat. No. D2650), DTT (Sigma, Cat. No. 43815), 384-well plate, compound dilution plate (Greiner, Cat. No. 781280), 384-well plate, test plate (Perkin Elmer, Cat. No. 6007299), HTRF KinEASE TK Kit (Cisbio, Cat. No. 62TK0PEB), magnesium chloride (Sigma, Cat. No. M1028), Orthovanadate (Sigma, Cat. No. 56508), BSA (Sigma, Cat. No. A7030), HEPES (Life technology, Cat. No. 11344-041).
# The final test concentrations of the test compounds ranged from 10 μM to 0.17 nM in 3-fold gradient dilutions at 11 concentrations.
# The preparation of the buffer, 50 mM HEPES (pH 7.5), 0.01% BSA, 5 mM MgCl2, and 0.1 mM Orthovanadate were contained in the buffer. After the preparation of the buffer, the enzyme and substrate were mixed with pre-diluted prepared compounds of different concentrations, and the mixture was placed at room temperature for 15 minutes. […] After the reaction was completed, the antibody was added to the assay, incubated at room temperature for 60 minutes and then detected by Envision (plate reading instrument), and data were collected. […]
# EGFR L858R/T790M double mutant enzyme, sequence (P00533 25-1210 T790M/L858R): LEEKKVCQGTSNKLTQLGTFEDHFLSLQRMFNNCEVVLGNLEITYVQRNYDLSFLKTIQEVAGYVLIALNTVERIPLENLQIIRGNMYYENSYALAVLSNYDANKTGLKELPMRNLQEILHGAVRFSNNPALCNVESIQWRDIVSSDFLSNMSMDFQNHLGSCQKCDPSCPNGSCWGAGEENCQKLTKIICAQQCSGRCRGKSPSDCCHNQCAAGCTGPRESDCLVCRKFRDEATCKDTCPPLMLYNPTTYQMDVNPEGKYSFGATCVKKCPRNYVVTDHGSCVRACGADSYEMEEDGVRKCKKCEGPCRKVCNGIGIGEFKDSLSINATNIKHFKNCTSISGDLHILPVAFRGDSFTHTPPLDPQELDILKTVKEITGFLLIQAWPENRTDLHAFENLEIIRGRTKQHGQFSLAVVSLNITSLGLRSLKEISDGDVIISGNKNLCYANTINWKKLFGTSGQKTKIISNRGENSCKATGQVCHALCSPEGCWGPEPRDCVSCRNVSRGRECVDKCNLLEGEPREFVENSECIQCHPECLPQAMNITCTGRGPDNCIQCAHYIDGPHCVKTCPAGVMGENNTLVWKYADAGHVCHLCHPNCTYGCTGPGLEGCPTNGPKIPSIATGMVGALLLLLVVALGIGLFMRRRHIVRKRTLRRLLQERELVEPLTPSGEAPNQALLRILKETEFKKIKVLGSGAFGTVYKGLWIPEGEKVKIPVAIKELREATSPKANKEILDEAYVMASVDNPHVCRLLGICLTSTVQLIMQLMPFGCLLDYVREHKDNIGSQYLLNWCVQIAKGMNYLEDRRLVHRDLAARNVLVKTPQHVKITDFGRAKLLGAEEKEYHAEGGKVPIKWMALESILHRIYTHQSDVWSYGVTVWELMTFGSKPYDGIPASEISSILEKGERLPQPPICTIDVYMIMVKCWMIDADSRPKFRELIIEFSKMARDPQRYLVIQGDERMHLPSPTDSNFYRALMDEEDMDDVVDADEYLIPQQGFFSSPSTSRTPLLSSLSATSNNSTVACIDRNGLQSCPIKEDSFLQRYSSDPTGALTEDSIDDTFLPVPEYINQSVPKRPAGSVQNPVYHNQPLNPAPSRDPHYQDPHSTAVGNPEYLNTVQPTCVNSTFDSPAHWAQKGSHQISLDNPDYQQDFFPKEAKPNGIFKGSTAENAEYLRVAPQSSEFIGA
structure (smiles),measurement,setting,value
C=CC(=O)Nc1cc(Nc2ncc(C(=O)OC(C)C)c(-c3cn(OC)c4ccccc34)n2)c(OC)cc1N(C)CCN(C)C.CS(=O)(=O)O [Compound 1],In vitro plasma stability (Residual percentage),"[1]; 120 minutes, 2 μM, 37° C.",87.9%
same,half-life at 2 µM,"[1]; Sprague-Dawley (SD), pH 7.4, 37° C., read-out: In vitro plasma half-life T1/2",> 289 min
same,Tumor volume (Day 0),"[2]; Day 0, mean ± standard error, n = 6",122.13 ± 3.12 mm^3
same,RTV,"[2]; Day 20, gavage once daily",0.14 ± 0.08
same,T/C,"[2]; Day 20, gavage once daily",2%
same,TGI,"[2]; Day 20, gavage once daily",114%
same,Tumor volume (Day 20),"[2]; Day 20, gavage once daily",16.97 ± 10.54 mm^3
same,In vitro plasma stability (Residual percentage),"[3]; 120 minutes, 2 μM, 37° C.",19%
same,half-life at 2 µM,"[3]; pH 7.4, 37° C., read-out: In vitro plasma half-life T1/2",51.6 min
same,IC50,[4],3.71 nM

# — patent US11530196B2, “Pyrimidine compound acting on EGFR and ERBB2” (CHINA RESOURCES PHARMACEUTICAL HOLDINGS COMPANY LIMITED, priority 2019, dated 2022)
